# According to paper PMC8398255, “Synthesis of 3,5-Bis(trifluoromethyl)phenyl-Substituted Pyrazole Derivatives as Potent Growth Inhibitors of Drug-Resistant Bacteria” (Molecules, 2021):
# Columns and labels:
# S. aureus strains = test: MIC against S. aureus strains; assay type: cell-based, Staphylococcus aureus; conditions: for times more effective than vancomycin and daptomycin: against S. aureus strains
# Experimental: (§1) Compounds were dissolved in dimethyl sulfoxide (DMSO) to achieve a starting concentration of 32 µg/mL as described by us previously. Compounds were further diluted two-fold across the 96-well honeycomb plate columns in cation adjusted Mueller Hinton broth (CAMHB), and bacterial culture was added. Plates were incubated for 18–20 h at 35 ℃ before determining the minimum concentrations at which wells had no visible turbidity to the naked eye. The MIC values were determined from at least a duplicate result obtained from three independent experiments using fresh bacterial cultures on different days.
# [1] = test system: S. aureus ATCC 33591 (Sa91); test: MIC, microdilution (CLSI); assay type: cell-based; conditions: Staphylococcus aureus, ATCC33591; Sa91, methicillin-resistant S. aureus ATCC 33591; n = 3; read-out: MIC
# Experimental: as §1
# [2] = test system: E. faecalis ATCC 29212 (Ef12); test: MIC, microdilution (CLSI); assay type: cell-based; conditions: Enterococcus faecalis, ATCC29212; Ef12, antibiotic susceptible E. faecalis ATCC 29212; n = 3; read-out: MIC
# Experimental: as §1
# [3] = test system: E. faecalis ATCC 51299 (Ef99); test: MIC, microdilution (CLSI); assay type: cell-based; conditions: Enterococcus faecalis, ATCC 51299 / VRE; Ef99, vancomycin-resistant (VRE) E. faecalis ATCC 51299; n = 3; read-out: MIC
# Experimental: as §1
# [4] = test system: S. aureus ATCC 25923 (Sa23); test: MIC, microdilution (CLSI); assay type: cell-based; conditions: Staphylococcus aureus, ATCC25923; Sa23, antibiotic susceptible S. aureus ATCC 25923; n = 3; read-out: MIC
# Experimental: as §1
# [5] = test system: S. aureus ATCC 700699 (Sa99); test: MIC, microdilution (CLSI); assay type: cell-based; conditions: Staphylococcus aureus, ATCC700699; Sa99, methicillin-resistant S. aureus ATCC 700699; n = 3; read-out: MIC
# Experimental: as §1
# [6] = test system: S. epidermidis ATCC 700296 (Se); test: MIC, microdilution (CLSI); assay type: cell-based; conditions: Staphylococcus epidermidis, ATCC700296; Se, S. epidermidis ATCC 700296; n = 3; read-out: MIC
# Experimental: as §1
# [7] = test system: E. faecium ATCC 700221 (Ef21); test: MIC, microdilution (CLSI); assay type: cell-based; conditions: Enterococcus faecium, ATCC 700221 / VRE; Ef21, vancomycin-resistant (VRE) E. faecium ATCC 700221; n = 3; read-out: MIC
# Experimental: as §1
# [8] = test system: Bacillus subtilis ATCC 6623 (Bs); test: MIC, microdilution (CLSI); assay type: cell-based; conditions: ATCC6623; Bs, Bacillus subtilis ATCC 6623; n = 3; read-out: MIC
# Experimental: as §1
# [9] = test system: S. aureus BAA-2312 (Sa12); test: MIC, microdilution (CLSI); assay type: cell-based; conditions: Staphylococcus aureus, BAA2312; Sa12, methicillin-resistant S. aureus BAA-2312; n = 3; read-out: MIC
# Experimental: as §1
# [10] = test system: S. aureus ATCC 33592 (Sa92); test: MIC, microdilution (CLSI); assay type: cell-based; conditions: Staphylococcus aureus, ATCC33592; Sa92, methicillin-resistant S. aureus ATCC 33592; n = 3; read-out: MIC
# Experimental: as §1
# Gram-positive bacteria = test: MIC across the tested strains; assay type: cell-based; conditions: for MIC: across the tested strains
# Experimental: as §1
SMILES,"MIC (S. aureus strains; Staphylococcus aureus, S. aureus strains, including MRSA) [µg/mL]",MIC [1] [µg/mL],MIC [2] [µg/mL],MIC [3] [µg/mL],MIC [4] [µg/mL],MIC [5] [µg/mL],MIC [6] [µg/mL],MIC [7] [µg/mL],MIC [8] [µg/mL],MIC [9] [µg/mL],MIC [10] [µg/mL],antibacterial activity (Gram-positive bacteria; tested bacteria),MIC (Gram-positive bacteria) [µg/mL],times more effective than vancomycin and daptomycin (S. aureus strains)
"CC(C)c1ccc(NCc2cn(-c3ccc(C(=O)O)cc3)nc2-c2cc(C(F)(F)F)cc(C(F)(F)F)c2)cc1 [Compound 2, 4-[3-[3,5-Bis(trifluoromethyl)phenyl]-4-[(4-isopropylanilino)methyl]pyrazol-1-yl] benzoic acid]",1 to 2,1,2,1,2,2,2,1,1,1,1,–,–,–
"O=C(O)c1ccc(NCc2cn(-c3ccc(C(=O)O)cc3)nc2-c2cc(C(F)(F)F)cc(C(F)(F)F)c2)cc1 [Compound 13, 4-[[3-[3,5-Bis(trifluoromethyl)phenyl]-1-(4-carboxyphenyl)pyrazol-4-yl]methylamino] benzoic acid]",–,> 32,> 32,> 32,> 32,> 32,> 32,> 32,> 32,32,> 32,eliminated the activity,–,–
"Cc1cc(NCc2cn(-c3ccc(C(=O)O)cc3)nc2-c2cc(C(F)(F)F)cc(C(F)(F)F)c2)ccc1F [Compound 14, 4-[3-[3,5-Bis(trifluoromethyl)phenyl]-4-[(4-fluoro-3-methyl-anilino)methyl]pyrazol-1-yl] benzoic acid]",–,2,2,2,2,2,4,1,1,1,1,–,≥ 1,–
"Cc1ccc(NCc2cn(-c3ccc(C(=O)O)cc3)nc2-c2cc(C(F)(F)F)cc(C(F)(F)F)c2)cc1Cl [Compound 15, 4-[3-[3,5-Bis(trifluoromethyl)phenyl]-4-[(3-chloro-4-methyl-anilino)methyl]pyrazol-1-yl] benzoic acid]",–,1,2,2,2,2,2,1,1,1,2,–,≥ 1,–
"Cc1cc(NCc2cn(-c3ccc(C(=O)O)cc3)nc2-c2cc(C(F)(F)F)cc(C(F)(F)F)c2)ccc1Br [Compound 16, 4-[3-[3,5-Bis(trifluoromethyl)phenyl]-4-[(4-bromo-3-methyl-anilino)methyl]pyrazol-1-yl] benzoic acid]",–,1,1,2,1,2,2,1,1,1,1,–,≥ 1,–
"O=C(O)c1ccc(-n2cc(CNc3ccc(F)c(F)c3)c(-c3cc(C(F)(F)F)cc(C(F)(F)F)c3)n2)cc1 [Compound 17, 4-[3-[3,5-Bis(trifluoromethyl)phenyl]-4-[(3,4-difluoroanilino)methyl]pyrazol-1-yl] benzoic acid]",–,2,4,4,2,2,4,2,1,2,2,–,1 to 4,–
"O=C(O)c1ccc(-n2cc(CNc3ccc(Cl)c(Cl)c3)c(-c3cc(C(F)(F)F)cc(C(F)(F)F)c3)n2)cc1 [Compound 19, 4-[3-[3,5-Bis(trifluoromethyl)phenyl]-4-[(3,4-dichloroanilino)methyl]pyrazol-1-yl] benzoic acid]",–,0.5,1,1,1,2,1,1,1,0.5,1,–,≥ 0.5,up to 4 times
"O=C(O)c1ccc(-n2cc(CNc3cc(Cl)cc(Cl)c3)c(-c3cc(C(F)(F)F)cc(C(F)(F)F)c3)n2)cc1 [Compound 20, 4-[3-[3,5-Bis(trifluoromethyl)phenyl]-4-[(3,5-dichloroanilino)methyl]pyrazol-1-yl] benzoic acid]",–,0.5,1,1,1,1,2,1,1,1,1,–,≥ 0.5,up to 4 times
"O=C(O)c1ccc(-n2cc(CNc3ccc(F)c(C(F)(F)F)c3)c(-c3cc(C(F)(F)F)cc(C(F)(F)F)c3)n2)cc1 [Compound 22, 4-[3-[3,5-Bis(trifluoromethyl)phenyl]-4-[[4-fluoro-3-(trifluoromethyl)anilino]methyl]pyrazol-1-yl] benzoic acid]",–,1,2,2,1,1,2,1,2,1,1,–,–,up to 4 times
"O=C(O)c1ccc(-n2cc(CNc3cc(Cl)c(F)cc3F)c(-c3cc(C(F)(F)F)cc(C(F)(F)F)c3)n2)cc1 [Compound 26, 4-[3-[3,5-Bis(trifluoromethyl)phenyl]-4-[(5-chloro-2,4-difluoro-anilino)methyl]pyraz-ol-1-yl] benzoic acid]",–,2,1,2,2,1,4,0.25,0.25,0.25,1,–,≥ 0.25,up to 4 times
